Literature values as cited in patent US7022337B2 (Shire Laboratories, Inc., priority 2002, dated 2006).

Conditions: prolonged treatment, 300 to 400 mg per day

CC(C)OC(=O)C(C)(C)Oc1ccc(C(=O)c2ccc(Cl)cc2)cc1 [Fenofibrate, 2-[4-(4-Chlorobenzoyl)phenoxy]-2-methylpropanoic acid 1-methylethyl ester]
Reduction in the levels of triglycerides: 40 to 50%
Reduction in total cholesterol: 20 to 25%
